How the values were obtained:
Experiment in all cases: relative viability (nuclei count vs DMSO), 5 days (fraction); higher = more cells survive
[1] = compound: CC(C)C[C@H](NC(=O)[C@H](CCc1ccccc1)NC(=O)CN1CCOCC1)C(=O)N[C@@H](Cc1ccccc1)C(=O)N[C@@H](CC(C)C)C(=O)[C@@]1(C)CO1 [Carfilzomib] + CC(=O)Nc1cccc(-n2c(=O)n(C3CC3)c(=O)c3c(Nc4ccc(I)cc4F)n(C)c(=O)c(C)c32)c1 [Trametinib] (partner 0.02 µM)
Method in brief: (§1)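 Nuclei were stained with Hoechst during a one-step fixation (final 0.05% Triton X-100, 1% formaldehyde, 1 ug/ml Hoechst) carried out 5 days after dosing, then counted on 4× images. The cells, lung cancer lines in 1536-well plates, had been dosed by pin tool the day after seeding with one drug alone or a fixed anchor-drug dose plus five library-drug doses (not always all listed) in √10 steps. Relative viability is the nuclei count in treated wells divided by that in vehicle wells, and each value is the median of duplicate plates.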

[2] = compound: O=C(c1cc(Cc2n[nH]c(=O)c3ccccc23)ccc1F)N1CCN(C(=O)C2CC2)CC1 [Olaparib] + CC(=O)c1c(C)c2cnc(Nc3ccc(N4CCNCC4)cn3)nc2n(C2CCCC2)c1=O [Palbociclib] (partner 0.5 µM)
Method in brief: as §1

[3] = compound: C[C@@H](Oc1cc(-c2cnn(C3CCNCC3)c2)cnc1N)c1c(Cl)ccc(F)c1Cl [Crizotinib] + NC(=O)Nc1cc(-c2cccc(F)c2)sc1C(=O)N[C@H]1CCCNC1 [AZD7762] (partner 0.2 µM)
Method in brief: as §1

[4] = compound: C[C@@H](Oc1cc(-c2cnn(C3CCNCC3)c2)cnc1N)c1c(Cl)ccc(F)c1Cl [Crizotinib] + O=C(CCCCCCC(=O)Nc1ccccc1)NO [Vorinostat] (partner 1 µM)
Method in brief: as §1

[5] = compound: C[C@@H](Oc1cc(-c2cnn(C3CCNCC3)c2)cnc1N)c1c(Cl)ccc(F)c1Cl [Crizotinib] + CS(=O)(=O)N1CCN(Cc2cc3nc(-c4cccc5[nH]ncc45)nc(N4CCOCC4)c3s2)CC1 [Pictilisib] (partner 1 µM)
Method in brief: as §1

NCI-H1793
relative viability ([1]; first compound 0.001 µM): 0.38 | relative viability ([1]; first compound 0.003162 µM): 0.497 | relative viability ([1]; first compound 0.01 µM): 0.46 | relative viability ([1]; first compound 0.03162 µM): 0.472 | relative viability ([1]; first compound 0.1 µM): 0.35 | relative viability ([2]; first compound 0.08 µM): 0.274 | relative viability ([2]; first compound 0.253 µM): 0.302 | relative viability ([2]; first compound 2.53 µM): 0.327 | relative viability ([2]; first compound 8 µM): 0.286 | relative viability ([3]; first compound 0.03162 µM): 0.435 | relative viability ([3]; first compound 0.1 µM): 0.41 | relative viability ([3]; first compound 1 µM): 0.621 | relative viability ([4]; first compound 0.03162 µM): 0.765 | relative viability ([4]; first compound 0.1 µM): 0.748 | relative viability ([4]; first compound 1 µM): 0.896 | relative viability ([5]; first compound 0.01 µM): 0.355 | relative viability ([5]; first compound 0.03162 µM): 0.385 | relative viability ([5]; first compound 0.1 µM): 0.339 | relative viability ([5]; first compound 1 µM): 0.364

— the supplement of paper PMC10307832
